Reference: patent EP0624368A2, “Use of a composition for stimulating the synthesis of glutathione in the manufacture of a medicament for the treatment of acquired immune deficiency syndrome” (priority 1993, dated 1994)

How the values were obtained:
HIV-1 (strain IIIB) [1] = assay: MTT assay of protection against acute HIV infection in MT-2 cells; assay type: cell-based; conditions: 100 IU/well HIV; for OD readings at 540 nm (MTT assay): MT-2, Day 6 cultures; for Calculated single treatment ED50: MT-2 cells, MTT assay
Source text: (§1) Three cell culture systems were used in this study: H-9 cells; MT-2 cells; and normal human peripheral blood mononuclear cells (PBMC). H-9 cells were obtained from Advanced Biotechnology Inc. (ABI). MT-2 cells were obtained from Dr. J. Armstrong of the University of Pittsburgh. MT-2 cells are HTLV-I transformed human T lymphocytes and continuously produce HTLV-I virions. PBMC were obtained from healthy donors, purified by Ficol-Hypaque, and stimulated with PHA mitogen before being used in the efficacy studies. The initial stock of HIV-1 (strain IIIB) used in this study was obtained from ABI and the working stocks were produced.
(§2) Cells were collected, put into tissue culture plates and incubated with different concentrations of drugs in RPMI 1640 tissue culture medium for 20 minutes prior to HIV challenge. Infection was carried out by inoculating 20-100 HIV infectious units (IU)/well inoculum without removing the drugs. The untreated cells exposed to HIV challenge served as positive controls. The normal untreated uninfected cells served as negative controls.
(§3) Both the MTT assay and HIV p24 ELISA were used for evaluation of drug efficacies with MT-2 cells. The MTT assay is based upon the metabolic reduction of the MTT tetrazolium bromide dye in live cells. The OD readings (at 540 nm) obtained from the MTT assay are inversely correlated to the levels of cell mortality due to HIV infection or the cytotoxic effect of drugs. […] The HIV p24 antigen assay measures the level of HIV antigen present in the sample (i.e., culture supernatant).
(§4) When evaluating the efficacies of drugs in H-9 cells and PBMC systems, only HIV p24 assays were used. To calculate the ED₅₀ values, a second order linear regression was applied on the logarithm of the tested doses of different drugs against the OD readings obtained from either MTT assays or HIV p24 assays.

HIV-1 (strain IIIB) [2] = assay: HIV p24 antigen assay in H-9 cells (single and combination treatment); assay type: cell-based; conditions: 80 IU/well HIV; for OD readings at 450 nm (HIV p24 antigen): H-9
Source text: as §1, §2, §4
(§5) Cells were collected, put into tissue culture plates and incubated with different combinations of drugs for 20 minutes prior to HIV infection in the combined treatment studies. Infection was carried out by inoculating 20-100 HIV IU/well inoculum without removing the drugs. The inocula were the same as the ones used in the single drug treatment to obtain the ED₅₀ values. Both MTT assays and HIV p24 antigen assays were used in evaluation of drug effects in MT-2 cells but only HIV p24 antigen assays were used for H-9 cells or PBMC.
(§6) Therefore, if the CI is less than 1, it indicates synergism among the tested drugs. Similarly, if the CI is equal to 1, the effects are additive, while a CI value greater than 1 is indicative of an antagonistic effect.

HIV-1 (strain IIIB) [3] = assay: HIV p24 antigen assay in PBMC (single and combination treatment); assay type: cell-based; conditions: 50 IU/well HIV
Source text: as §1, §2, §4, §5, §6

mice [4] = assay: Hematology of terminal blood in mice treated with AZT with or without Procysteine diet; assay type: in vivo; conditions: both sexes, AZT 50 or 500 mg/kg body weight/day by gavage 14 days, 1.0% Procysteine® diet in combination groups, p<0.01
Description: On study day 17, the animals were anesthetized with methoxyflurane (in a bell jar). When deeply anesthetized, blood was obtained from the abdominal aorta and transferred for hematological analysis into tubes containing an K₂EDTA suspension.
The following assays were conducted. Leukocyte count Erythrocyte count Total hemoglobin concentration Hematocrit Mean corpuscular volume (MCV) Mean corpuscular hemoglobin (MCH) Mean corpuscular hemoglobin concentration Platelet count Reticulocyte count Differential leukocyte count

mice [5] = assay: Bone marrow aspirate count and stem cell colony assay in treated mice; assay type: in vivo
Description: Populations of bone marrow colony forming cells were evaluated. Bone marrow was collected and the stem cell assay conducted, as follows: one femur per mouse was cut at the distal and proximal ends. Using a syringe and 25 gauge needle, 5 mL of IMDM media was flushed through the femur into a collection tube (2.5 mL flushed into one end, then 2.5 ml into the other end). The tube was washed using Iscove's Modified Dulbecco's Media containing 20% fetal bovine serum and the cell concentration was adjusted to the desired count for the colony assay.
In triplicate, the marrow cells were put into a mixture of methylcellulose and plated into 35 mm diameter dishes. The dishes were incubated for approximately 2 weeks (37°C, 5% CO₂, 100% relative humidity) then manually scored under a microscope for myeloid, erythroid, and mixed colonies.

mice [6] = assay: Bone marrow smear evaluation in treated mice
HIV-1 (strain IIIB) [7] = assay: HIV p24 antigen assay in MT-2 cells (single and combination treatment); assay type: cell-based; conditions: 20 IU/well HIV; for OD readings at 450 nm (HIV p24 antigen): MT-2
Source text: as §1, §2, §3, §4, §5, §6

[8] = 10⁴ nucleated cells cultured 14 days

SMILES: Cc1cn([C@H]2C[C@H](N=[N+]=[N-])[C@@H](CO)O2)c(=O)[nH]c1=O [AZT]
- OD readings at 540 nm (MTT assay) (HIV-1 (strain IIIB) [1]; 0.0025 μM): 0.474
- OD readings at 540 nm (MTT assay) (HIV-1 (strain IIIB) [1]; 0.01 μM): 0.641
- OD readings at 540 nm (MTT assay) (HIV-1 (strain IIIB) [1]; 0.04 μM): 0.678
- OD readings at 540 nm (MTT assay) (HIV-1 (strain IIIB) [1]; 0.16 μM): 0.688
- OD readings at 540 nm (MTT assay) (HIV-1 (strain IIIB) [1]; 0.64 μM): 0.946
- Calculated single treatment ED50 (HIV-1 (strain IIIB) [1]): 0.055 µM
- OD readings at 450 nm (HIV p24 antigen) (HIV-1 (strain IIIB) [2]; 0.0025 μM): 4.133
- OD readings at 450 nm (HIV p24 antigen) (HIV-1 (strain IIIB) [2]; 0.01 μM): 4.133
- OD readings at 450 nm (HIV p24 antigen) (HIV-1 (strain IIIB) [2]; 0.04 μM): 4.133
- OD readings at 450 nm (HIV p24 antigen) (HIV-1 (strain IIIB) [2]; 0.16 μM): 3.815
- OD readings at 450 nm (HIV p24 antigen) (HIV-1 (strain IIIB) [2]; 0.64 μM): 0.358
- OD readings at 450 nm (HIV p24 antigen) (HIV-1 (strain IIIB) [3]; 0.0025 μM): 3.405
- OD readings at 450 nm (HIV p24 antigen) (HIV-1 (strain IIIB) [3]; 0.01 μM): 2.978
- OD readings at 450 nm (HIV p24 antigen) (HIV-1 (strain IIIB) [3]; 0.04 μM): 0.155
- OD readings at 450 nm (HIV p24 antigen) (HIV-1 (strain IIIB) [3]; 0.16 μM): 0.163
- OD readings at 450 nm (HIV p24 antigen) (HIV-1 (strain IIIB) [3]; 0.64 μM): 0.204
- Calculated single treatment ED50 (HIV-1 (strain IIIB) [3]; p24 assay): 0.021 µM
- hematological effects in terminal blood (hemoglobin, hematocrit, erythrocyte counts decreased; MCV, MCH increased) (mice [4]): Anemia
- burst forming units-erythroid for marrow cultures (mice [5]; [8]): No group differences
- total colonies and colony forming units-granulocyte/macrophage (mice [5]; [8]): significant induction
- nucleated cells in bone marrow aspirates (mice [5]; AZT 50 or 500 mg/kg body weight/day, compared to controls): significant reduction
- total count of erythroid series cells in bone marrow smears (mice [6]; AZT 50 or 500 mg/kg body weight/day, 1.0% Procysteine® diet in combination groups): reduced total count
- metarubricytes (nonproliferating) in bone marrow smears (mice [6]; AZT-treated): marked reduction
- rubriblasts in bone marrow smears (mice [6]; AZT-treated): mild reduction
- nonproliferating compartment of the myeloid series (mice [6]; bone marrow smears): reduction
- proliferating compartment of the myeloid series (mice [6]; bone marrow smears): significantly increased

SMILES: O=c1[nH]cnc2c1ncn2[C@H]1CC[C@@H](CO)O1 [ddI]
- OD readings at 540 nm (MTT assay) (HIV-1 (strain IIIB) [1]; 0.25 μM): 0.551
- OD readings at 540 nm (MTT assay) (HIV-1 (strain IIIB) [1]; 1 μM): 0.603
- OD readings at 540 nm (MTT assay) (HIV-1 (strain IIIB) [1]; 4 μM): 0.561
- OD readings at 540 nm (MTT assay) (HIV-1 (strain IIIB) [1]; 16 μM): 0.880
- OD readings at 540 nm (MTT assay) (HIV-1 (strain IIIB) [1]; 64 μM): 1.135
- Calculated single treatment ED50 (HIV-1 (strain IIIB) [1]): 2.778 µM
- OD readings at 450 nm (HIV p24 antigen) (HIV-1 (strain IIIB) [7]; 0.25 μM): 3.351
- OD readings at 450 nm (HIV p24 antigen) (HIV-1 (strain IIIB) [7]; 1 μM): 3.025
- OD readings at 450 nm (HIV p24 antigen) (HIV-1 (strain IIIB) [7]; 4 μM): 0.710
- OD readings at 450 nm (HIV p24 antigen) (HIV-1 (strain IIIB) [7]; 16 μM): 1.167
- OD readings at 450 nm (HIV p24 antigen) (HIV-1 (strain IIIB) [7]; 64 μM): 1.131
- Calculated single treatment ED50 (HIV-1 (strain IIIB) [7]; MT-2 cells, p24 assay): 4.069 µM
- OD readings at 450 nm (HIV p24 antigen) (HIV-1 (strain IIIB) [2]; 0.25 μM): 3.984
- OD readings at 450 nm (HIV p24 antigen) (HIV-1 (strain IIIB) [2]; 1 μM): 1.542
- OD readings at 450 nm (HIV p24 antigen) (HIV-1 (strain IIIB) [2]; 4 μM): 0.772
- OD readings at 450 nm (HIV p24 antigen) (HIV-1 (strain IIIB) [2]; 16 μM): 0.716
- OD readings at 450 nm (HIV p24 antigen) (HIV-1 (strain IIIB) [2]; 64 μM): 0.329
- Calculated single treatment ED50 (HIV-1 (strain IIIB) [2]; H-9 cells, p24 assay): 2.424 µM
- OD readings at 450 nm (HIV p24 antigen) (HIV-1 (strain IIIB) [3]; 0.25 μM): 2.730
- OD readings at 450 nm (HIV p24 antigen) (HIV-1 (strain IIIB) [3]; 1 μM): 2.658
- OD readings at 450 nm (HIV p24 antigen) (HIV-1 (strain IIIB) [3]; 4 μM): 0.672
- OD readings at 450 nm (HIV p24 antigen) (HIV-1 (strain IIIB) [3]; 16 μM): 0.212
- OD readings at 450 nm (HIV p24 antigen) (HIV-1 (strain IIIB) [3]; 64 μM): 0.098
